Laboratory results reported in PMC5379148, “A phase I study of intravenous and oral rucaparib in combination with chemotherapy in patients with advanced solid tumours” (British Journal of Cancer, 2017).

Key:
[1] = system: patients with advanced solid tumours; conditions: single-agent oral rucaparib; ref Kristeleit et al, 2014; cited from earlier work
clinical = conditions: human, in vivo; for half-life: t1/2
Protocol: (§1) On cycle 1 days −10, −5, 1, and 14, plasma samples were obtained from all patients before rucaparib dosing and at 15 and 30 min, and at 1, 1.5, 2.5, 4, 6, 10, and 24 h after the start of the rucaparib administration (i.v. infusion (day −10) or oral (days −5, 1, and 14)). On cycle 1 days −10 and −5, samples were also obtained 48 h after the start of rucaparib administration. Rucaparib concentration was determined using liquid chromatography with tandem mass spectrometry.
(§2) Plasma clearance or apparent plasma clearance and steady-state volume of distribution were calculated for rucaparib. The oral bioavailability of rucaparib was calculated as the ratio of dose-normalised AUC0–t or AUCinf (data permitting) determined using oral rucaparib PK data collected on cycle 1 day −5 to that determined using the i.v. PK data collected on cycle 1 day −10. Pharmacokinetic parameters were summarised with the geometric mean and the coefficient of variation (CV). The ratio of Cmax and AUC0–24 of rucaparib administered in combination with chemotherapies to those of rucaparib alone was calculated and summarised, with mean and CV% to evaluate the effect of chemotherapies on the PK of rucaparib for both the i.v. dose (day −10) and oral dose (day −5).
(§3) The oral bioavailability of rucaparib was calculated as the ratio of dose-normalised AUC0-t or AUCinf (data permitting) determined using oral rucaparib PK data collected on cycle 1 day –5 to that determined using the intravenous PK data collected on cycle 1 day –10. The tmax was summarised with medians and ranges. The accumulation ratio after multiple oral rucaparib dosing (once daily) was assessed as the ratio of the AUC0-24 determined using PK collected on cycle 1 day 14 to the AUC0-24 after the cycle 1 day –5 lead-in dose. The ratio of the Cmax on day 14 to the Cmax on day –5 was also calculated. Additionally, the ratio of the AUC0-24 on cycle 1 day 14 to the AUCinf after the cycle 1 day –5 lead-in dose was calculated as an indication for any time-dependent change in rucaparib PK.

[2] = Plasma pharmacokinetics of rucaparib (LC-MS/MS, noncompartmental); conditions: for Vd / AUC(0-t) / AUC(0-inf) / Cmax / Tmax / bioavailability / Tmax at 14 days: human, plasma; for AUC(0-inf): AUCinf; for Tmax / Tmax at 14 days: median (minimum, maximum)
Protocol: as §1, §2, §3

[3] = iv, 12 mg, single i.v. dose 12 mg, day –10, geometric mean (CV%)
[4] = iv, 18 mg, single i.v. dose 18 mg, day –10, geometric mean (CV%)
[5] = iv, 24 mg, single i.v. dose 24 mg, day –10, geometric mean (CV%)
[6] = iv, 27 mg, single i.v. dose 27 mg, day –10, geometric mean (CV%)
[7] = iv, 40 mg, single i.v. dose 40 mg, day –10, geometric mean (CV%)
[8] = po, 12 mg, single oral dose 12 mg, day –5, geometric mean (CV%)
[9] = po, 36 mg, single oral dose 36 mg, day –5, geometric mean (CV%)
[10] = po, 48 mg, single oral dose 48 mg, day –5, geometric mean (CV%)
[11] = po, 72 mg, single oral dose 72 mg, day –5, geometric mean (CV%)
[12] = po, 80 mg, single oral dose 80 mg, day 1, geometric mean (CV%)
[13] = po, 80 mg, single oral dose 80 mg, day –5, geometric mean (CV%)
[14] = po, 120 mg, single oral dose 120 mg, day 1, geometric mean (CV%)
[15] = po, 120 mg, single oral dose 120 mg, day –5, geometric mean (CV%)
[16] = po, 180 mg, single oral dose 180 mg, day –5, geometric mean (CV%)
[17] = po, 240 mg, single oral dose 240 mg, day 1, geometric mean (CV%)
[18] = po, 240 mg, single oral dose 240 mg, day –5, geometric mean (CV%)
[19] = po, 360 mg, single oral dose 360 mg, day 1, geometric mean (CV%)
[20] = po, 360 mg, single oral dose 360 mg, day –5, geometric mean (CV%)

For `CNCc1ccc(-c2[nH]c3cc(F)cc4c3c2CCNC4=O)cc1` [rucaparib], the “recommended phase II dose” value [1] is listed as 600 mg twice daily, the clearance (clinical; iv, 12 mg) is listed as 270 mL/min and the half-life (clinical; iv, 12 mg) is listed as 1120 min. It also gave a clearance (clinical; iv, 18 mg) of 307 mL/min, a half-life (clinical; iv, 18 mg) of 982 min and a clearance (clinical; iv, 24 mg) of 233 mL/min. It also gave a half-life (clinical; iv, 24 mg) of 1240 min, a clearance (clinical; iv, 27 mg) of 237 mL/min and a half-life (clinical; iv, 27 mg) of 1010 min. For the same molecule, the clearance (clinical; iv, 40 mg) was 232 mL/min, the half-life (clinical; iv, 40 mg) was 712 min and the half-life (clinical; po, 12 mg) was 1120 min. For the same molecule, the half-life (clinical; po, 36 mg) was 1080 min, the half-life (clinical; po, 48 mg) was 1220 min and the half-life (clinical; po, 72 mg) was 1510 min. For the same molecule, the half-life (clinical; po, 80 mg) was 1210 min, the half-life (clinical; po, 120 mg) was 796 min and the half-life (clinical; po, 180 mg) was 1150 min. It also gave a half-life (clinical; po, 240 mg) of 1060 min, a half-life (clinical; po, 360 mg) of 1100 min and a half-life (clinical) of roughly 1020 min. For the same molecule, the “impact of chemotherapy coadministration on i.v. rucaparib PK” value ([2]; carboplatin+paclitaxel, cisplatin+pemetrexed, or epirubicin+cyclophosphamide) was “No apparent impact”, the Vd ([2]; iv, 12 mg) was 258 L and the AUC(0-t) ([2]; iv, 12 mg, AUC0-24, single i.v. dose 12 mg, day –10, geometric mean (CV%)) was 549 ng·h/mL. It also gave an AUC(0-inf) [2, 3] of 740 ng·h/mL, a Cmax [2, 3] of 324 ng/mL and a Tmax ([2]; iv, 12 mg, single i.v. dose 12 mg, day –10) of 0.5 h. For the same molecule, the Vd ([2]; iv, 18 mg) was 234 L, the AUC(0-t) ([2]; iv, 18 mg, AUC0-24, single i.v. dose 18 mg, day –10, geometric mean (CV%)) was 812 ng·h/mL and the AUC(0-inf) [2, 4] was 976 ng·h/mL. It also gave a Cmax [2, 4] of 498 ng/mL, a Tmax ([2]; iv, 18 mg, single i.v. dose 18 mg, day –10) of 0.5 h and a Vd ([2]; iv, 24 mg) of 262 L. It also gave an AUC(0-t) ([2]; iv, 24 mg, AUC0-24, single i.v. dose 24 mg, day –10, geometric mean (CV%)) of 1220 ng·h/mL, an AUC(0-inf) [2, 5] of 1710 ng·h/mL and a Cmax [2, 5] of 627 ng/mL. For the same molecule, the Tmax ([2]; iv, 24 mg, single i.v. dose 24 mg, day –10) was 0.5 h, the Vd ([2]; iv, 27 mg) was 191 L and the AUC(0-t) ([2]; iv, 27 mg, AUC0-24, single i.v. dose 27 mg, day –10, geometric mean (CV%)) was 1450 ng·h/mL. The AUC(0-inf) [2, 6] was 1900 ng·h/mL, the Cmax [2, 6] was 866 ng/mL and the Tmax ([2]; iv, 27 mg, single i.v. dose 27 mg, day –10) was 0.38 h. The Vd ([2]; iv, 40 mg) was 113 L, the AUC(0-t) ([2]; iv, 40 mg, AUC0-24, single i.v. dose 40 mg, day –10, geometric mean (CV%)) was 2530 ng·h/mL and the AUC(0-inf) [2, 7] was 2880 ng·h/mL. For the same molecule, the Cmax [2, 7] was 1610 ng/mL, the Tmax ([2]; iv, 40 mg, single i.v. dose 40 mg, day –10) was 0.5 h and the bioavailability ([2]; po) was 36%. For the same molecule, the bioavailability ([2]; po, 12 mg) was 33.4%, the AUC(0-t) ([2]; po, 12 mg, AUC0-24, single oral dose 12 mg, day –5, geometric mean (CV%)) was 155 ng·h/mL and the AUC(0-inf) [2, 8] was 225 ng·h/mL. For the same molecule, the Cmax [2, 8] was 24 ng/mL, the Tmax ([2]; po, 12 mg, single oral dose 12 mg, day –5) was 1 h and the bioavailability ([2]; po, 36 mg) was 45.3%. For the same molecule, the AUC(0-t) ([2]; po, 36 mg, AUC0-24, single oral dose 36 mg, day –5, geometric mean (CV%)) was 696 ng·h/mL, the AUC(0-inf) [2, 9] was 1100 ng·h/mL and the Cmax [2, 9] was 90 ng/mL. For the same molecule, the Tmax ([2]; po, 36 mg, single oral dose 36 mg, day –5) was 2 h, the bioavailability ([2]; po, 48 mg) was 33.6% and the AUC(0-t) ([2]; po, 48 mg, AUC0-24, single oral dose 48 mg, day –5, geometric mean (CV%)) was 620 ng·h/mL. For the same molecule, the AUC(0-inf) [2, 10] was 922 ng·h/mL, the Cmax [2, 10] was 80 ng/mL and the Tmax ([2]; po, 48 mg, single oral dose 48 mg, day –5) was 1.25 h. The bioavailability ([2]; po, 72 mg) was 30.1%, the AUC(0-t) ([2]; po, 72 mg, AUC0-24, single oral dose 72 mg, day –5, geometric mean (CV%)) was 893 ng·h/mL and the AUC(0-inf) [2, 11] was 1090 ng·h/mL. It also gave a Cmax [2, 11] of 108 ng/mL, a Tmax ([2]; po, 72 mg, single oral dose 72 mg, day –5) of 2 h and a bioavailability ([2]; po, 80 mg) of 30.7%. The AUC(0-t) ([2]; po, 80 mg, AUC0-24, oral 80 mg q.d. for 14 days, n = 1) was 2210 ng·h/mL, the AUC(0-t) ([2]; po, 80 mg, AUC0-24, single oral dose 80 mg, day 1, geometric mean (CV%)) was 1380 ng·h/mL and the AUC(0-t) ([2]; po, 80 mg, AUC0-24, single oral dose 80 mg, day –5, geometric mean (CV%)) was 1270 ng·h/mL. For the same molecule, the AUC(0-inf) [2, 12] was 1700 ng·h/mL, the AUC(0-inf) [2, 13] was 1920 ng·h/mL and the Cmax ([2]; po, 80 mg, oral 80 mg q.d. for 14 days, n = 1) was 190 ng/mL. The Cmax [2, 12] was 99 ng/mL, the Cmax [2, 13] was 114 ng/mL and the Tmax at 14 days ([2]; po, 80 mg, oral 80 mg q.d. for 14 days) was 2.5 h. The Tmax ([2]; po, 80 mg, single oral dose 80 mg, day 1) was 4 h, the Tmax ([2]; po, 80 mg, single oral dose 80 mg, day –5) was 2.5 h and the bioavailability ([2]; po, 120 mg) was 41.1%. It also gave an AUC(0-t) ([2]; po, 120 mg, AUC0-24, oral 120 mg q.d. for 14 days, geometric mean (CV%)) of 4040 ng·h/mL, an AUC(0-t) ([2]; po, 120 mg, AUC0-24, single oral dose 120 mg, day 1, geometric mean (CV%)) of 3260 ng·h/mL and an AUC(0-t) ([2]; po, 120 mg, AUC0-24, single oral dose 120 mg, day –5, geometric mean (CV%)) of 2920 ng·h/mL. The AUC(0-inf) [2, 14] was 3770 ng·h/mL, the AUC(0-inf) [2, 15] was 4070 ng·h/mL and the Cmax ([2]; po, 120 mg, oral 120 mg q.d. for 14 days, geometric mean (CV%)) was 375 ng/mL. The Cmax [2, 14] was 344 ng/mL, the Cmax [2, 15] was 274 ng/mL and the Tmax at 14 days ([2]; po, 120 mg, oral 120 mg q.d. for 14 days) was 2.5 h. The Tmax ([2]; po, 120 mg, single oral dose 120 mg, day 1) was 4 h, the Tmax ([2]; po, 120 mg, single oral dose 120 mg, day –5) was 4 h and the AUC(0-t) ([2]; po, 180 mg, AUC0-24, oral 180 mg q.d. for 14 days, geometric mean (CV%)) was 7660 ng·h/mL. The AUC(0-t) ([2]; po, 180 mg, AUC0-24, single oral dose 180 mg, day 1, geometric mean (CV%)) was 5920 ng·h/mL, the AUC(0-t) ([2]; po, 180 mg, AUC0-24, single oral dose 180 mg, day –5, geometric mean (CV%)) was 5610 ng·h/mL and the AUC(0-inf) [2, 16] was 8410 ng·h/mL. It also gave a Cmax ([2]; po, 180 mg, oral 180 mg q.d. for 14 days, geometric mean (CV%)) of 454 ng/mL, a Cmax ([2]; po, 180 mg, single oral dose 180 mg, day 1, geometric mean (CV%)) of 527 ng/mL and a Cmax [2, 16] of 410 ng/mL. For the same molecule, the Tmax at 14 days ([2]; po, 180 mg, oral 180 mg q.d. for 14 days) was 4 h, the Tmax ([2]; po, 180 mg, single oral dose 180 mg, day 1) was 6 h and the Tmax ([2]; po, 180 mg, single oral dose 180 mg, day –5) was 4 h. The AUC(0-t) ([2]; po, 240 mg, AUC0-24, oral 240 mg q.d. for 14 days, geometric mean (CV%)) was 7560 ng·h/mL, the AUC(0-t) ([2]; po, 240 mg, AUC0-24, single oral dose 240 mg, day 1, geometric mean (CV%)) was 5130 ng·h/mL and the AUC(0-t) ([2]; po, 240 mg, AUC0-24, single oral dose 240 mg, day –5, geometric mean (CV%)) was 5030 ng·h/mL. It also gave an AUC(0-inf) [2, 17] of 4370 ng·h/mL, an AUC(0-inf) [2, 18] of 6990 ng·h/mL and a Cmax ([2]; po, 240 mg, oral 240 mg q.d. for 14 days, geometric mean (CV%)) of 527 ng/mL. It also gave a Cmax [2, 17] of 493 ng/mL, a Cmax [2, 18] of 442 ng/mL and a Tmax at 14 days ([2]; po, 240 mg, oral 240 mg q.d. for 14 days) of 4 h. The Tmax ([2]; po, 240 mg, single oral dose 240 mg, day 1) was 4 h, the Tmax ([2]; po, 240 mg, single oral dose 240 mg, day –5) was 4 h and the AUC(0-t) ([2]; po, 360 mg, AUC0-24, oral 360 mg q.d. for 14 days, geometric mean (CV%)) was 15600 ng·h/mL. The AUC(0-t) ([2]; po, 360 mg, AUC0-24, single oral dose 360 mg, day 1, geometric mean (CV%)) was 8280 ng·h/mL, the AUC(0-t) ([2]; po, 360 mg, AUC0-24, single oral dose 360 mg, day –5, geometric mean (CV%)) was 9170 ng·h/mL and the AUC(0-inf) [2, 19] was 9980 ng·h/mL. It also gave an AUC(0-inf) [2, 20] of 11000 ng·h/mL, a Cmax ([2]; po, 360 mg, oral 360 mg q.d. for 14 days, geometric mean (CV%)) of 1050 ng/mL and a Cmax [2, 19] of 697 ng/mL. For the same molecule, the Cmax [2, 20] was 814 ng/mL, the Tmax at 14 days ([2]; po, 360 mg, oral 360 mg q.d. for 14 days) was 4 h and the Tmax ([2]; po, 360 mg, single oral dose 360 mg, day 1) was 4 h. It also gave a Tmax ([2]; po, 360 mg, single oral dose 360 mg, day –5) of 4 h.
